The subject of the experiment is MV-4-11 cells. Kind of experiment: Gene expression microarray analysis (Affymetrix PrimeView) and GSEA. Format: cell-based, human. The arrangement: RFU PODN (11730768_x_at) / Fold change /veh PODN (11730768_x_at) / RFU LINC00158 (11744669_a_at) / Fold change /veh LINC00158 (11744669_a_at) / RFU DUSP10 (11751237_a_at) / Fold change /veh DUSP10 (11751237_a_at) / RFU ID3 (11757404_x_at) / Fold change /veh ID3 (11757404_x_at) / RFU PLEKHG5 (11737974_s_at) / Fold change /veh PLEKHG5 (11737974_s_at) / RFU LRRC4B (11730491_at) / Fold change /veh LRRC4B (11730491_at) / RFU GIMAP4 (11747438_a_at) / Fold change /veh GIMAP4 (11747438_a_at) / RFU KRT8 (11758183_x_at) / Fold change /veh KRT8 (11758183_x_at) / RFU CNN1 (11734310_a_at) / Fold change /veh CNN1 (11734310_a_at) / RFU VPS37D (11726825_at) / Fold change /veh VPS37D (11726825_at) / RFU C10orf10 (11716522_x_at) / Fold change /veh C10orf10 (11716522_x_at) / RFU KIR2DL2 /// KIR2DL4 /// KIR2DL5A /// KIR2DL5B /// KIR2DS1 /// KIR2DS2 /// KIR2DS3 /// KIR2DS4 /// KIR3DL3 /// KIR3DL3 /// KIR3DS1 (11738374_at) / Fold change /veh KIR2DL2 /// KIR2DL4 /// KIR2DL5A /// KIR2DL5B /// KIR2DS1 /// KIR2DS2 /// KIR2DS3 /// KIR2DS4 /// KIR3DL3 /// KIR3DL3 /// KIR3DS1 (11738374_at) / RFU C1QL1 (11718748_at) / Fold change /veh C1QL1 (11718748_at) / RFU TMPRSS4 (11747572_a_at) / Fold change /veh TMPRSS4 (11747572_a_at) / RFU HAMP (11756126_x_at) / Fold change /veh HAMP (11756126_x_at) / RFU RNFT2 (11725882_a_at) / Fold change /veh RNFT2 (11725882_a_at) / RFU NR4A2 (11747474_a_at) / Fold change /veh NR4A2 (11747474_a_at) / RFU ABCC12 (11746883_a_at) / Fold change /veh ABCC12 (11746883_a_at) / RFU TMEM136 (11760407_x_at) / Fold change /veh TMEM136 (11760407_x_at) / RFU CLDN22 /// WWC2 (11732394_at) / Fold change /veh CLDN22 /// WWC2 (11732394_at) / RFU HLA-DPB1 (11760878_x_at) / Fold change /veh HLA-DPB1 (11760878_x_at) / RFU SPINT1 (11716480_a_at) / Fold change /veh SPINT1 (11716480_a_at) / RFU GAP43 (11754022_s_at) / Fold change /veh GAP43 (11754022_s_at) / RFU A4GNT (11735810_at) / Fold change /veh A4GNT (11735810_at) / RFU PRB3 (11715151_x_at) / Fold change /veh PRB3 (11715151_x_at) / RFU TUBB4B (11761932_at) / Fold change /veh TUBB4B (11761932_at) / RFU CAPN14 (11732068_a_at) / Fold change /veh CAPN14 (11732068_a_at) / RFU TMCC2 (11721928_a_at) / Fold change /veh TMCC2 (11721928_a_at) / RFU IRGQ (11745062_a_at) / Fold change /veh IRGQ (11745062_a_at) / RFU FAM174B (11720279_a_at) / Fold change /veh FAM174B (11720279_a_at) / RFU TMPRSS4 (11748680_a_at) / Fold change /veh TMPRSS4 (11748680_a_at) / RFU FAM212B (11763350_a_at) / Fold change /veh FAM212B (11763350_a_at) / RFU PLEKHG5 (11743358_a_at) / Fold change /veh PLEKHG5 (11743358_a_at) / RFU ZSCAN30 (11745921_a_at) / Fold change /veh ZSCAN30 (11745921_a_at) / RFU CMKLR1 (11741424_a_at) / Fold change /veh CMKLR1 (11741424_a_at) / RFU LOC101060620 /// MAPK8IP1 (11723275_at) / Fold change /veh LOC101060620 /// MAPK8IP1 (11723275_at) / RFU SPTSSB (11747773_x_at) / Fold change /veh SPTSSB (11747773_x_at) / RFU PRSS12 (11739890_at) / Fold change /veh PRSS12 (11739890_at) / RFU BIN1 (11741810_x_at) / Fold change /veh BIN1 (11741810_x_at) / RFU WNT11 (11732464_a_at) / Fold change /veh WNT11 (11732464_a_at) / RFU C10orf10 (11716521_a_at) / Fold change /veh C10orf10 (11716521_a_at) / RFU C5orf56 (11738089_at) / Fold change /veh C5orf56 (11738089_at) / RFU CYB561 (11721691_x_at) / Fold change /veh CYB561 (11721691_x_at) / RFU ANKRD19P (11752326_a_at) / Fold change /veh ANKRD19P (11752326_a_at) / RFU OR2T12 /// OR2T33 /// OR2T8 (11738714_s_at) / Fold change /veh OR2T12 /// OR2T33 /// OR2T8 (11738714_s_at) / RFU VCAN (11748164_a_at) / Fold change /veh VCAN (11748164_a_at) / RFU JSRP1 (11732532_at) / Fold change /veh JSRP1 (11732532_at) / RFU KRTAP10-11 (11738290_x_at) / Fold change /veh KRTAP10-11 (11738290_x_at) / RFU MYO3A (11730013_a_at) / Fold change /veh MYO3A (11730013_a_at) / RFU EBF3 (11725865_a_at) / Fold change /veh EBF3 (11725865_a_at) / RFU CAMK2N1 (11719241_x_at) / Fold change /veh CAMK2N1 (11719241_x_at) / RFU C5orf56 (11738088_a_at) / Fold change /veh C5orf56 (11738088_a_at) / RFU OLFML3 (11715873_a_at) / Fold change /veh OLFML3 (11715873_a_at) / RFU LOC100653217 /// NTM (11731650_a_at) / Fold change /veh LOC100653217 /// NTM (11731650_a_at) / RFU MAPK11 (11762145_a_at) / Fold change /veh MAPK11 (11762145_a_at) / RFU FIZ1 (11724087_x_at) / Fold change /veh FIZ1 (11724087_x_at) / RFU OASL (11726364_x_at) / Fold change /veh OASL (11726364_x_at) / RFU SOX15 (11748057_x_at) / Fold change /veh SOX15 (11748057_x_at) / RFU CD79A (11719716_a_at) / Fold change /veh CD79A (11719716_a_at) / RFU HIST1H1D (11736915_at) / Fold change /veh HIST1H1D (11736915_at) / RFU CASKIN2 (11723855_a_at) / Fold change /veh CASKIN2 (11723855_a_at) / RFU LOC730098 (11760151_x_at) / Fold change /veh LOC730098 (11760151_x_at) / RFU OR4N2 (11742367_at) / Fold change /veh OR4N2 (11742367_at) / RFU PRRT2 (11749266_a_at) / Fold change /veh PRRT2 (11749266_a_at) / RFU SNX32 (11753110_a_at) / Fold change /veh SNX32 (11753110_a_at) / RFU CDHR5 (11726645_a_at) / Fold change /veh CDHR5 (11726645_a_at) / RFU RCAN1 (11760418_a_at) / Fold change /veh RCAN1 (11760418_a_at) / RFU FAM167A (11723789_a_at) / Fold change /veh FAM167A (11723789_a_at) / RFU FAM26E (11764081_at) / Fold change /veh FAM26E (11764081_at) / RFU ISYNA1 (11749810_s_at) / Fold change /veh ISYNA1 (11749810_s_at) / RFU ACY1 (11761880_at) / Fold change /veh ACY1 (11761880_at) / RFU 11764098_at / Fold change /veh 11764098_at / RFU SAMD14 (11745864_x_at) / Fold change /veh SAMD14 (11745864_x_at) / RFU NPB (11741838_a_at) / Fold change /veh NPB (11741838_a_at) / RFU TMPRSS6 (11731388_a_at) / Fold change /veh TMPRSS6 (11731388_a_at) / RFU KRTAP10-2 (11738614_at) / Fold change /veh KRTAP10-2 (11738614_at) / RFU ARHGAP8 /// PRR5-ARHGAP8 (11727945_x_at) / Fold change /veh ARHGAP8 /// PRR5-ARHGAP8 (11727945_x_at) / RFU KRTAP5-7 /// NADSYN1 (11734609_at) / Fold change /veh KRTAP5-7 /// NADSYN1 (11734609_at) / RFU RASL12 (11751679_a_at) / Fold change /veh RASL12 (11751679_a_at) / RFU CDKN2B (11736163_a_at) / Fold change /veh CDKN2B (11736163_a_at) / RFU PRF1 (11729649_at) / Fold change /veh PRF1 (11729649_at) / RFU, ZNF638 /// ZNF638-IT1 / Fold change vs veh, ZNF638 /// ZNF638-IT1 / RFU, PANK3 / Fold change vs veh, PANK3 / RFU, SH3YL1 / Fold change vs veh, SH3YL1 / RFU, ZEB2 / Fold change vs veh, ZEB2 / RFU, NRIP1 / Fold change vs veh, NRIP1 / RFU, PTTG1IP / Fold change vs veh, PTTG1IP / RFU, CAPN2 / Fold change vs veh, CAPN2 / RFU, MED14 / Fold change vs veh, MED14 / RFU, SNORA58 / Fold change vs veh, SNORA58 / RFU, C1orf63 / Fold change vs veh, C1orf63 / RFU, LRRFIP1 / Fold change vs veh, LRRFIP1 / RFU, NDUFAF7 / Fold change vs veh, NDUFAF7 / RFU, SLC12A2 / Fold change vs veh, SLC12A2 / RFU, IBTK / Fold change vs veh, IBTK / RFU, ESF1 / Fold change vs veh, ESF1 / Fold change vs veh, TMEM50B / RFU, TAOK1 / Fold change vs veh, TAOK1 / RFU, ACBD3 / Fold change vs veh, ACBD3 / RFU, TMA16 / Fold change vs veh, TMA16 / RFU, RWDD3 / Fold change vs veh, RWDD3 / RFU, BCAT1 / Fold change vs veh, BCAT1 / RFU, EDEM3 / Fold change vs veh, EDEM3 / RFU, TMEM33 / Fold change vs veh, TMEM33 / RFU, WDR75 / Fold change vs veh, WDR75 / RFU, AHCTF1 / Fold change vs veh, AHCTF1 / RFU, TFRC / Fold change vs veh, TFRC / RFU, ZDHHC17 / Fold change vs veh, ZDHHC17 / RFU, NOM1 / Fold change vs veh, NOM1 / RFU, ARL8B / Fold change vs veh, ARL8B / RFU, ZBTB11 / Fold change vs veh, ZBTB11 / RFU, TAMM41 / Fold change vs veh, TAMM41 / RFU, KIAA1704 /// LOC100996395 / Fold change vs veh, KIAA1704 /// LOC100996395 / RFU, ING1 / Fold change vs veh, ING1 / RFU, TRMT61B / Fold change vs veh, TRMT61B / RFU, FUBP3 / Fold change vs veh, FUBP3 / RFU, TP53 / Fold change vs veh, TP53 / RFU, TNKS2 / Fold change vs veh, TNKS2 / RFU, ZFP14 / Fold change vs veh, ZFP14 / RFU, ACTR2 / Fold change vs veh, ACTR2 / RFU, PPP3R1 / Fold change vs veh, PPP3R1 / RFU, PIK3R1 / Fold change vs veh, PIK3R1 / RFU, HNRNPA1 / Fold change vs veh, HNRNPA1 / RFU, RNF170 / Fold change vs veh, RNF170 / RFU, ZNF28 / Fold change vs veh, ZNF28 / RFU, RNGTT / Fold change vs veh, RNGTT / RFU, OGT / Fold change vs veh, OGT / RFU, BRD1 / Fold change vs veh, BRD1 / RFU, MARS / Fold change vs veh, MARS / RFU, ZNF655 / Fold change vs veh, ZNF655 / RFU, FAHD1 / Fold change vs veh, FAHD1 / RFU, BDP1 / Fold change vs veh, BDP1 / RFU, LRRCC1 / Fold change vs veh, LRRCC1 / RFU, ARID1A / Fold change vs veh, ARID1A / RFU, ZNF146 / Fold change vs veh, ZNF146 / RFU, ZNF330 / Fold change vs veh, ZNF330 / RFU, GPN3 / Fold change vs veh, GPN3 / RFU, C9orf123 / Fold change vs veh, C9orf123 / RFU, N4BP2L2 / Fold change vs veh, N4BP2L2 / RFU, ARFIP1 / Fold change vs veh, ARFIP1 / RFU, FAM179B / Fold change vs veh, FAM179B / RFU, BCL10 / Fold change vs veh, BCL10 / RFU, UHRF1BP1L / Fold change vs veh, UHRF1BP1L / RFU, BET1 / Fold change vs veh, BET1 / RFU, CNOT2 / Fold change vs veh, CNOT2 / RFU, ZNF268 / Fold change vs veh, ZNF268 / Fold change vs veh, ZNF507 / RFU, DGCR2 / Fold change vs veh, DGCR2 / RFU, WDSUB1 / Fold change vs veh, WDSUB1 / Fold change vs veh, HSP90B1 /// MIR3652 / RFU, ADSS / Fold change vs veh, ADSS / RFU, GK / Fold change vs veh, GK / RFU, ZNF148 / Fold change vs veh, ZNF148 / RFU, TAF9 / Fold change vs veh, TAF9 / RFU, SLC1A5 / Fold change vs veh, SLC1A5 / RFU, SLMO2 / Fold change vs veh, SLMO2 / RFU, ABCC4 / Fold change vs veh, ABCC4 / RFU, LOC101060439 /// RAP1B / Fold change vs veh, LOC101060439 /// RAP1B / RFU, RFX7 / Fold change vs veh, RFX7 / RFU, GTPBP10 / Fold change vs veh, GTPBP10 / RFU, CNEP1R1 / Fold change vs veh, CNEP1R1 / RFU, BIVM-ERCC5 /// ERCC5 / Fold change vs veh, BIVM-ERCC5 /// ERCC5 / RFU, ILF3 / Fold change vs veh, ILF3 / RFU 11762660_at / Fold change /veh 11762660_at / RFU VCAN (11757783_s_at) / Fold change /veh VCAN (11757783_s_at) / RFU DDX43 (11728927_at) / Fold change /veh DDX43 (11728927_at) / RFU KRT8 (11758188_x_at) / Fold change /veh KRT8 (11758188_x_at) / RFU NKD1 (11759106_at) / Fold change /veh NKD1 (11759106_at) / RFU SRD5A1 (11742802_a_at) / Fold change /veh SRD5A1 (11742802_a_at) / RFU TPSAB1 /// TPSB2 (11721975_s_at) / Fold change /veh TPSAB1 /// TPSB2 (11721975_s_at) / RFU GSTM3 (11746129_a_at) / Fold change /veh GSTM3 (11746129_a_at) / RFU IL23R (11737362_x_at) / Fold change /veh IL23R (11737362_x_at) / RFU TMEM51 (11727254_a_at) / Fold change /veh TMEM51 (11727254_a_at) / RFU PIWIL2 (11732686_x_at) / Fold change /veh PIWIL2 (11732686_x_at) / RFU ORM1 (11744905_x_at) / Fold change /veh ORM1 (11744905_x_at) / RFU CCDC152 (11743942_at) / Fold change /veh CCDC152 (11743942_at) / RFU ECM1 (11717891_a_at) / Fold change /veh ECM1 (11717891_a_at) / RFU IL23R (11748794_a_at) / Fold change /veh IL23R (11748794_a_at) / RFU TNFAIP8L3 (11732012_x_at) / Fold change /veh TNFAIP8L3 (11732012_x_at) / RFU MBOAT4 (11741988_at) / Fold change /veh MBOAT4 (11741988_at) / RFU 11764193_at / Fold change /veh 11764193_at / RFU TMEM53 (11763286_at) / Fold change /veh TMEM53 (11763286_at) / RFU MAGEB2 (11727129_at) / Fold change /veh MAGEB2 (11727129_at) / RFU TMEM200A (11744735_a_at) / Fold change /veh TMEM200A (11744735_a_at) / RFU CCDC152 (11751479_a_at) / Fold change /veh CCDC152 (11751479_a_at) / RFU FAM211A (11726209_a_at) / Fold change /veh FAM211A (11726209_a_at) / RFU RGS16 (11746705_a_at) / Fold change /veh RGS16 (11746705_a_at) / RFU VCAN (11755009_s_at) / Fold change /veh VCAN (11755009_s_at) / RFU RHOB (11743442_s_at) / Fold change /veh RHOB (11743442_s_at) / RFU RGS16 (11720943_a_at) / Fold change /veh RGS16 (11720943_a_at) / RFU RGS16 (11720944_at) / Fold change /veh RGS16 (11720944_at) / RFU, VPS4B / Fold change vs veh, VPS4B / RFU, CREB1 / Fold change vs veh, CREB1 / RFU, DNAJC13 / Fold change vs veh, DNAJC13 / RFU, GNAQ / Fold change vs veh, GNAQ / RFU, CDK5R1 / Fold change vs veh, CDK5R1 / RFU, ZRANB3 / Fold change vs veh, ZRANB3 / RFU, CUL4A / Fold change vs veh, CUL4A / RFU, CCNY / Fold change vs veh, CCNY / RFU, UFL1 / Fold change vs veh, UFL1 / RFU, COG3 / Fold change vs veh, COG3 / RFU, DIAPH2 / Fold change vs veh, DIAPH2 / RFU, SKA2 / Fold change vs veh, SKA2 / RFU, AFF3 / Fold change vs veh, AFF3 / RFU, LMF1 / Fold change vs veh, LMF1 / RFU, IPO11 / Fold change vs veh, IPO11 / RFU, DFFB / Fold change vs veh, DFFB / RFU, FOXP1 / Fold change vs veh, FOXP1 / RFU, CARD8 / Fold change vs veh, CARD8 / RFU, STRN3 / Fold change vs veh, STRN3 / RFU, ADK / Fold change vs veh, ADK / RFU, RASSF2 / Fold change vs veh, RASSF2 / RFU, WIPF1 / Fold change vs veh, WIPF1 / RFU, LARP1B / Fold change vs veh, LARP1B / RFU, RASA1 / Fold change vs veh, RASA1 / RFU, RB1 / Fold change vs veh, RB1 / RFU, PPFIA1 / Fold change vs veh, PPFIA1 / RFU, MAT2A / Fold change vs veh, MAT2A / RFU, CCT5 / Fold change vs veh, CCT5 / RFU, WDR92 / Fold change vs veh, WDR92 / RFU, CUX1 / Fold change vs veh, CUX1 / RFU, TTC7A / Fold change vs veh, TTC7A / RFU, TMEM135 / Fold change vs veh, TMEM135 / RFU, DEPTOR / Fold change vs veh, DEPTOR / RFU, CPM / Fold change vs veh, CPM / RFU, DNAJB6 / Fold change vs veh, DNAJB6 / RFU, CACNA2D3 / Fold change vs veh, CACNA2D3 / RFU, DTX4 / Fold change vs veh, DTX4 / RFU, TFCP2 / Fold change vs veh, TFCP2 / RFU, GMCL1 /// GMCL1P1 / Fold change vs veh, GMCL1 /// GMCL1P1 / RFU, AEBP2 / Fold change vs veh, AEBP2 / RFU, SNHG1 /// SNORD22 /// SNORD25 /// SNORD26 /// SNORD27 /// SNORD28 /// SNORD29 /// SNORD31 / Fold change vs veh, SNHG1 /// SNORD22 /// SNORD25 /// SNORD26 /// SNORD27 /// SNORD28 /// SNORD29 /// SNORD31 / Fold change (Aza/veh), C12orf56 (ProbeSet 11735607_a_at) / Fold change (ACY-1035/veh), C12orf56 (ProbeSet 11735607_a_at) / Fold change (Aza/veh), FGFR1OP (ProbeSet 11751329_s_at) / Fold change (ACY-1035/veh), FGFR1OP (ProbeSet 11751329_s_at) / Fold change (Aza/veh), VPS36 (ProbeSet 11739960_a_at) / Fold change (ACY-1035/veh), VPS36 (ProbeSet 11739960_a_at) / RFU SYPL1 (11715823_x_at) / Fold change /veh SYPL1 (11715823_x_at) / RFU IGFBP7 (11715501_s_at) / Fold change /veh IGFBP7 (11715501_s_at) / RFU REEP3 (11722064_at) / Fold change /veh REEP3 (11722064_at) / RFU IGLL1 (11728026_x_at) / Fold change /veh IGLL1 (11728026_x_at): dose or concentration left out as unconfirmed. Particulars: ProbeSet 11728879_at; LIST B.

For `Nc1ccc(-c2cccs2)cc1NC(=O)c1ccc2c(c1)cc(C1CC1)n2CCN1CCOCC1` [ACY-1035], the “RFU, PPP3R1” value is on record as 371.71 RFU.
